Experiment: Cytotoxicity against mouse […] cells
Type: functional, cell-based

Structure (SMILES)	IC50 [µg/mL]
COC(=O)[C@]1(C)[C@@H]2CC[C@]3(C)\C(=C(C)/C=C/C=C(C)/C=C/C=O)C(=O)C[C@@H]3[C@@]2(C)CC[C@H]1OC(C)=O	> 3.3
COC(=O)/C=C/C(C)=C1/C(=O)C[C@@H]2[C@@]3(C)CC[C@@H](OC(C)=O)[C@](C)(C(=O)OC)[C@@H]3CC[C@]12C [JASPIFEROIC ACID B DIMETHYL ESTER]	> 3.3
COC(=O)[C@]1(C)[C@@H]2CC[C@]3(C)/C(=C(/C)C=O)C(=O)C[C@@H]3[C@@]2(C)CC[C@H]1OC(C)=O	> 3.3
COC(=O)[C@]1(C)[C@@H]2CC[C@]3(C)\C(=C(C)/C=C/C=C(C)/C=C/C(OC)C(C)(C)O)C(=O)C[C@@H]3[C@@]2(C)CC[C@H]1OC(C)=O (some centres not stated) [GLOBOSTELLATIC ACD C METHYL ESTER]	> 3.3
COC(=O)[C@]1(C)[C@@H]2CC[C@]3(C)\C(=C(C)/C=C/C=C(\C)C=O)C(=O)C[C@@H]3[C@@]2(C)CC[C@H]1OC(C)=O	> 3.3
COC(=O)/C(C)=C1\C(=O)C[C@@H]2[C@@]3(C)CC[C@@H](OC(C)=O)[C@](C)(C(=O)OC)[C@@H]3CC[C@]12C [JASPIFEROIC ACID A DIMETHYL ESTER]	> 3.3
COC(=O)[C@]1(C)[C@@H]2CC[C@]3(C)\C(=C(C)/C=C/C=C(\C)C(/C=C/C(C)(C)O)OC)C(=O)C[C@@H]3[C@@]2(C)CC[C@H]1OC(C)=O (some centres not stated) [GLOBOSTELLATIC ACD B METHYL ESTER]	> 3.3

Reference: ChEMBL document CHEMBL1142641, “New isomalabaricane derivatives from a new species of Jaspis sponge collected at the Vanuatu islands” (J Nat Prod, 2000)
